What was measured:
CD44+ Du145 cells = test: Clonal and sphere formation assays; type: cell-based, human; conditions: miR-141 vs NC oligos, 30 nM, 48 h transfection
Protocol: Average % of CD44^+ cells (as determined by flow analysis; n=3-5) is indicated for each cell type (UD, undetectable). […] Purified CD44^+ Du145 cells were transfected with NC or miR-141 oligos (30 nM, 48 h) and then plated for clonal (1D & 1E) and sphere (1F) assays. Bars represent mean±SD. *, P<0.05; **, P<0.01. […] Shown are tumor images, cell numbers injected (100,000 cells per injection for all models), site of injection (s.c, subcutaneously) and days (d) when tumors were harvested. Tumor weight and incidences with corresponding P values are also indicated. ns, not significant. […] For 1st generation (1°) sphere assays, 1,000 cells per well were plated in triplicate for each group in 12-well plate and results scored in 11 days. For 2nd generation (2°), the 1° spheres were harvested, digested with Collagenase and Trypsin into single cells, 1,000 cells/well were plated, and results scored in 10 days. Quantification of the colonies was plotted (1 L; **P<0.01). […]
For clonal assays, cultured prostate cancer cells or human prostate cancer cells freshly purified from patient primary tumors were plated at a clonal density (i.e., 100 cells/well) in a 6-well plate. The number of holoclones (33) was counted several days later. […] Floating spheres that arose in 1-2 weeks were counted. […]

human CD44 3'-UTR = test: CD44 3'-UTR luciferase reporter assay; type: cell-based; conditions: Du145 cells
Protocol: FIGS. 3A-3J show partial suppression of epithelial to mesenchymal transition by miR-141 and CD44 as a direct target of miR-141. FIGS. 3A-3B show qPCR analysis of epithelial to mesenchymal transition markers in bulk (FIG. 3A) or CD44^+ (FIG. 3B) Du145 cells transfected with the miR-141 oligos (30 nM; 48 h). Results were presented as the relative expression levels over the cells transfected with the NC oligos. […] GAPDH was used as control and the relative protein levels after normalizing to GAPDH and NC controls were indicated below each lane. […] Shown below is the actual sequence in the region with the mutated miR-141 binding sequence indicated in grey (below). […] Shown are representative images. […] Du145 cells were co-transfected with NC or miR-141 oligos (30 nM) together with pBabe empty vector or pBabe-CD44 vector. After 48 h, cells were harvested for invasion assays. […]
The human CD44 3′-UTR was amplified from Du145 genomic DNA using primers 5′-[…]-3′ (SEQ ID NO: 2) and 5′-[…]-3′ (SEQ ID NO: 3), as previously described (13). […] The luciferase activities were detected using Duo-luciferase reporter assay system (Promega). Human RAC1, CDC42, CDC42EP3, and ARPC5 3′-UTR luciferase reporter constructs were obtained from SwitchGear Genomics (Menlo Park, Calif.) and luciferase activities were measured per the manufacturer's instructions using LightSwitch luciferase assay kit.

[1] = system: RAC1, CDC42, ARPC5 and CDC42EP3; test: Western blotting of Rho GTPase signaling members; type: cell-based, human; conditions: Du145 cells, miR-141 over-expression
Protocol: Du145 cells transfected with NC or miR-141 oligos at the two doses and time intervals indicated were used in Western blotting. Indicated below are relative expression levels (normalized to respective GAPDH and compared to NC) of each protein determined by densitometric scanning of the individual bands. […] Bars, mean±SD. *P<0.05; **P<0.01. […] Du145 cells were co-transfected with NC or miR-141 oligos (30 nM) in combination with pcDNA3.1 (control) vector or pcDNA-RAC1 or pcDNA-CDC42 expression vector. After 48 h, cells were harvested for invasion assays. […] Du145 cells were infected with Lenti-141 or control lentivirus (MOI 10, 48 h) and then harvested to measure the Rho GTPase activities. Bars, mean±SD. *P<0.05. […] Du145 cells were transfected with the antisense oligos to NC or miR-141 (anti-141; 30 nM) and then used in invasion assays (FIG. 5E). In FIG. 5F and FIG. 5G Du145 cells were transfected with 10 nM of scramble siRNA control (siCon) or siRNAs targeting RAC1 (FIG. 5F) or CDC42 (FIG. 5G), either alone or in combination of anti-141 (30 nM). 48 h later, cells were harvested for invasion assays. Bars, mean±SD. *P<0.05; **P<0.01.

miR-141: miR-141 mirVana mimics (Life Technologies); microRNA-141 oligonucleotide may have SEQ ID NO: 1; in some experiments over-expressed by lentiviral vectors (UAACACUGUCUGGUAAAGAUGG; listed as RNA, further chemistry not given here) [miR-141 mirVana mimics (Life Technologies); in some experiments over-expressed by lentiviral vectors]
clonogenic capacity (CD44+ Du145 cells): inhibited
sphere-forming capacity (CD44+ Du145 cells): inhibited
luciferase activity, CD44 3'-UTR with mutated miR-141 binding sequence (human CD44 3'-UTR): abrogated the suppressive effect of miR-141
luciferase activity, wild-type CD44 3'-UTR reporter (human CD44 3'-UTR; vs negative control oligos): lower
protein levels of ARPC5, CDC42EP3, CDC42 and RAC1 [1]: downregulated, to varying degrees

From patent US10202604B2, “Methods of using microRNA-141” (Stemirna Therapeutics Co., Ltd., priority 2016, dated 2019)
